Data on 3 compounds can be found in patent US20080312209A1, “Piperazine Heteroaryl Derivatives as Gpr38 Agonists” (Glaxo Group Limited, priority 2005, published 2008).

The pEC50 is the EC50 on a negative log10 scale, so that one unit is a factor of ten. A higher pEC50 goes with a small EC50.

Experiment [1] addresses T1, hGPR38R (Homo sapiens, UniProt O43193). Nature of the experiment: GPR38 FLIPR functional agonist assay. The class given is cell-based. Also noted: expressed in transfected cells. As to conditions: HEK-293 cells stably expressing the GPR38 receptor, agonist response, Fluo-4 fluorescence; for EC50: read-out: pEC50 in the FLIPR assay (converted). The protocol:
The potencies and efficacies of the compounds of this invention for GPR^38 can be determined by FLIPR assay performed on the human cloned receptor as described herein. It has been found, using the FLIPR functional assay, that compounds of formula (I) appear to be partial or full agonists of the GPR38 receptor.
GPR38FLIPR Functional Agonist Assay Protocol
HEK-293 cells stably expressing the GPR38 receptor were seeded (10,000 cells/well) into poly-D-lysine coated 384-well black-wall, clear-bottom microtitre plates (Becton Dickinson) 24 h prior to assay. On day of assay, cells were washed (×2) with 80 ul of assay buffer (Hanks Balanced Salts Solution (HBSS), 10 mM HEPES, 200 μM Ca^2+, 2.5 mM probenecid) using the EMBLA cell washer. After the final wash, buffer was aspirated to leave a residual volume of 30 ul on the cells. Cells were loaded with 1 μM (final) Fluo-4-AM fluorescent indicator dye (TefLabs) in assay buffer, (20 ul loading solution added to each well using the Multidrop). Plates were incubated for 1 h at 37° C., before being washed (×3) with 80 ul assay buffer using the EMBLA cell washer; 30 ul residual being left after the final wash. Plates were then assayed on a Fluorometric Imaging Plate Reader (FLIPR, Molecular Devices). Test compounds were prepared in assay buffer without probenecid, but containing 0.03% CHAPS. In the FLIPR, 10 ul of test compound was added to the cells and changes in fluorescence measured over a 2 min timeframe. Maximum change in fluorescence over baseline was used to determine agonist response and concentration response curves were constructed, using a 4-parameter logistic equation.
(§1) The following alternative procedure may also be used:
HEK-293 cells stably expressing the GPR38 receptor were seeded (30,000 cells/100 ul growth media/well) into poly-D-lysine coated 96-well black-wall, clear-bottom microtitre plates (Corning) 24 hours prior to assay. On the day of assay the cells were loaded with 2 μM (final) Fluo-4-AM fluorescent indicator dye (Molecular Probes) and 1 mM (final) probenicid in assay buffer (145 mM sodium chloride, 2.5 mM potassium chloride, 10 mM Hepes, 10 mM glucose, 1.2 mM magnesium chloride, 1.5 mM calcium chloride and 0.1% BSA) (50 ul loading solution added to each well). Plates were incubated for 1 hour at 25° C., before being washed 4 times with 100 ul assay buffer using the EMBLA cell washer; 150 ul residual being left after the final wash. The cells were then incubated at 25° C. for 20 minutes and the plates were then assayed on a Fluorometric Imaging Plate Reader (FLIPR, Molecular Devices). Test compounds were prepared in assay buffer without probenecid. In the FLIPR, 50 ul of test compound was added to the cells and changes in fluorescence measured over a 2 minute timeframe. Maximum change in fluorescence over baseline was used to determine agonist response and concentration response curves were constructed, using a 4-parameter logistic equation.
Target sequence in this assay (O43193 whole entry): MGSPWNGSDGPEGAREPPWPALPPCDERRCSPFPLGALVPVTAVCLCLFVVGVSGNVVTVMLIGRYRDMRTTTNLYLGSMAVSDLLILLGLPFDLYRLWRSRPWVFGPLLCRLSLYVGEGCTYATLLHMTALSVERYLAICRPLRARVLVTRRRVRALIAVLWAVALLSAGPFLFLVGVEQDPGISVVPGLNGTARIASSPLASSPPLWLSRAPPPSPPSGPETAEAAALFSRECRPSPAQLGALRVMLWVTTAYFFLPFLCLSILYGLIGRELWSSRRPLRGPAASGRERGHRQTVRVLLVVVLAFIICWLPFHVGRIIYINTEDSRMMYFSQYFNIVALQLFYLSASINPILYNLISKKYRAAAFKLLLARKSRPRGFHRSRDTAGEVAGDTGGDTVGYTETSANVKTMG

Experiment [2] has as its target T1, hGPR38R. In words: GPR38 GTPγS functional agonist assay. The class given is biochemical. Also noted: expressed in transfected cells; host or cells: HEK293 (transient transfection; P2 membrane fractions). The note with it: for EC50: [35S]GTPγS SPA, HEK293 membranes with hGPR38R and Go G-protein, read-out: pEC50 in the GTPγS assay (converted). The protocol: The potencies and intrinsic activities of the compounds of this invention can also be determined according to the [35S]GTPγS functional assay which is described herein. It has been found, using the [35S]GTPγS functional assay, that compounds of formula (I) appear to be partial or full agonists of the GPR38 receptor.
GPR38GTPγS Functional Agonist Assay Protocol
For each compound being assayed, in an Opti clear bottom 96 well plate, is added:—
(a) 20 μl of test compound (or 10 μl of guanosine 5′-triphosphate (GTP) as non-specific binding control) diluted to required concentration in assay buffer (20 mM N-2-Hydroxyethylpiperazine-N′-2-ethanesulfonic acid (HEPES)+100 mM NaCl+10 mM MgCl2, pH adjusted to 7.4 with NaOH); (b) 60 μl bead/membrane/GDP mix prepared by suspending wheat germ agglutinin-polyvinyltoluene (WGA-PVT) scintillation proximity assay (SPA) beads at 100 mg/ml in assay buffer followed by mixing with membrane (prepared in accordance with the methodology described above) and diluting in assay buffer to give a final volume of 60 μl which contains 10 μg protein and 0.5 mg bead per well—mixture is pre-mixed at 4° C. for 30 min on a roller and just prior to addition to the plate, 10 μM final concentration of guanosine 5′ diphosphate (GDP—diluted in assay buffer) is added; (c) 20 μl guanosine 5′ [γ35-S]thiotriphosphate, triethylamine salt (Amersham; radioactivity concentration=37 kBq/μl or 1 mCi/ml; Specific Activity 1160 Ci/mmol) diluted to 1.9 nM in assay buffer to give 0.38 nM final.
The plate is incubated on a shaker at 25° C. for 30 min followed by centrifugation for 5 min at 1500 rpm. The plate is read between 3 and 6 h after completion of centrifuge run in a Wallac Microbeta counter on a 1 min normalised tritium count protocol. Data is analysed using a 4-parameter logistic equation. Basal activity used as minimum.
as §1
Target sequence in this assay (O43193 whole entry): as above
Target sequence in this assay (P09471 2-354 partner limits assumed): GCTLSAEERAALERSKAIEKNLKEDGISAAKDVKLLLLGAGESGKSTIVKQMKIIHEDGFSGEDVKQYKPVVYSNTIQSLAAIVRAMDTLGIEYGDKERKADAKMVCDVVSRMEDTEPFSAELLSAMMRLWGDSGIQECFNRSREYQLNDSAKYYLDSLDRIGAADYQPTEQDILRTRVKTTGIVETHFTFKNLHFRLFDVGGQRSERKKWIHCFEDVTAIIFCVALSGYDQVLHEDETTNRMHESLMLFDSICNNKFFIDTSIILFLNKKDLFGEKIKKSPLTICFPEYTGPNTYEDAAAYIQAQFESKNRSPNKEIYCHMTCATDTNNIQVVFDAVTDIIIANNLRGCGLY
Target sequence in this assay (P62873 2-340 partner limits assumed): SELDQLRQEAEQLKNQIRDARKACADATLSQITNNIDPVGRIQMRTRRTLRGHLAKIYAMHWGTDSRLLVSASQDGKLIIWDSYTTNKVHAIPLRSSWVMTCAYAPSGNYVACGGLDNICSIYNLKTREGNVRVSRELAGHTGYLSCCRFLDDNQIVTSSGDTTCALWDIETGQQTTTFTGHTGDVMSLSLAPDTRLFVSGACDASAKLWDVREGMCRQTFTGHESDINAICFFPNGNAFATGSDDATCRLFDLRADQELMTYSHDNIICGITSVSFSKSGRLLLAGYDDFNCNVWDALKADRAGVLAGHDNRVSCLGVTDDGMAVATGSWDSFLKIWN
Target sequence in this assay (P59768 2-68 partner limits assumed): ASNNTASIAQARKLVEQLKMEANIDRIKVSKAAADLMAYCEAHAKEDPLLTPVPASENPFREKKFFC
Membranes are derived from bulk cell cultures of HEK293 cell lines transiently transfected with hGPR38R and Go G-protein. P2 membranes fractions are prepared, aliquoted and stored at −80° C.
For each compound being assayed, the following is added into a white Greiner 384 well plate:—
(a) 1 μl of test compound diluted to required concentration in DMSO. (b) 20 μl bead/membrane/Saponin/GDP mix prepared as follows;—suspension of LEADseeker wheat germ agglutinin (WGA) scintillation proximity assay (SPA) beads at 25 mg/ml in assay buffer (20 mM N-2-Hydroxyethylpiperazine-N′-2-ethanesulfonic acid (HEPES)+100 mM NaCl+10 mM MgCl2, pH adjusted to 7.4 with KOH) containing saponin at 150 ug/ml. Mixing of bead suspension with membranes at 500 ug/ml (prepared in accordance with the methodology described above) and diluting in assay buffer to give a final volume of 20 μl which contains 5 μg protein and 0.25 mg bead per well.
Mixture is pre-mixed for 30 minutes on a roller and just prior to addition to the plate, 3 μM final assay concentration of guanosine 5′ diphosphate (GDP) (diluted in assay buffer) is added.
(c) 25 μl guanosine 5′ [γ35-S]thiotriphosphate, triethylamine salt (Amersham; radioactivity concentration=37 kBq/μl or 1 mCi/ml; Specific Activity 1160 Ci/mmol) diluted to 0.6 nM in assay buffer to give 0.33 nM final assay concentration.
The plate is then spun for 2 minutes at 1500 rpm and then incubated at room temperature for 4 hours. The plate is then read on a Viewlux Plux (Perkin Elmer). Data is analysed using a 4-parameter logistic equation.

pEC50: −log10 of the molar value. Bounds are passed on as bounds.

For `C[C@@H]1CN(Cc2ccc(-c3cccnc3C(=O)N3CCC(Cc4ccc(F)cc4)CC3)cc2)C[C@H](C)N1` [Example 1, (3R,5S)-3,5-Dimethyl-1-({4-[2-({4-[(4-Fluorophenyl)methyl]piperidin-1-yl}carbonyl)pyridin-3-yl]phenyl}methyl)piperazine], the EC50 on hGPR38R [1] was less than 316 nM; at hGPR38R [2], less than 3160 nM.
Take `COc1cc(NC2CCN(C(=O)c3ncccc3-c3ccc(CN4C[C@@H](C)N[C@@H](C)C4)c(F)c3)CC2)ccc1F` [Example 28, 1-{[3-(4-{[(3R,5S)-3,5-dimethyl-1-piperazinyl]methyl}-3-fluorophenyl)-2-pyridinyl]carbonyl}-N-[4-fluoro-3-(methyloxy)phenyl]-4-piperidinamine]: the EC50 at hGPR38R [1] is less than 316 nM; on hGPR38R [2] it was less than 3160 nM.
`C[C@@H]1CN(Cc2ccc(-c3cccnc3C(=O)N3CCC(Nc4ccc(F)c(F)c4)CC3)cc2)C[C@H](C)N1` [Example 15, N-(3,4-difluorophenyl)-1-{[3-(4-{[(3R,5S)-3,5-dimethyl-1-piperazinyl]methyl}phenyl)-2-pyridinyl]carbonyl}-4-piperidinamine]: the values for the pEC50 on hGPR38R [1] (pEC50 in the FLIPR assay) and on hGPR38R [2] were more than 6.50 and more than 5.50, respectively.
